Measurements published in US20250084094A1 (Vertex Pharmaceuticals Incorporated, priority 2021, published 2025).

biological target: T1, APOL1 (Homo sapiens, UniProt O14791); assay: MultiTox-Fluor Multiplex Cytotoxicity Assay in tet-inducible APOL1 T-REx-HEK293 cells; type: cell-based; details: tet-inducible transgenic APOL1 T-REx-HEK293 cell lines, 50 ng/mL tet, 24 hours, ratio of dead to live cells; read-out: IP50 (nM) (i.e., IC50 for cell proliferation)
T1 sequence (O14791 1-398 S342G/I384M): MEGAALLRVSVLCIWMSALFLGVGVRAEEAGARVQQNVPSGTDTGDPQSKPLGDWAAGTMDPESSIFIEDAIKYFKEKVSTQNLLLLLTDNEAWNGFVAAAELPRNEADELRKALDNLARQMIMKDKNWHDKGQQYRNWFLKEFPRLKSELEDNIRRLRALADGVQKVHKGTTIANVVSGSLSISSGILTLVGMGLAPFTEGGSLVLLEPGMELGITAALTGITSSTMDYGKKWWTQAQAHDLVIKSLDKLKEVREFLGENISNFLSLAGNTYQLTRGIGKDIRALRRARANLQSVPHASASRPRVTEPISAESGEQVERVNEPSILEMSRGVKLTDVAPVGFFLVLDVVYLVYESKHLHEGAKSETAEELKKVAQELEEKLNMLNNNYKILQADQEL
Procedure: The MultiTox-Fluor Multiplex Cytotoxicity Assay is a single-reagent-addition, homogeneous, fluorescence assay that measures the number of live and dead cells simultaneously in culture wells. The assay measures cell viability and cytotoxicity by detecting two distinct protease activities. The live-cell protease activity is restricted to intact viable cells and is measured using a fluorogenic, cell-permeant peptide glycyl-phenylalanylamino fluorocoumarin (GF-AFC) substrate. The substrate enters intact cells, where it is cleaved to generate a fluorescent signal proportional to the number of living cells. […] A second, cell-impermeant, fluorogenic peptide substrate (bis-AAF-R110 Substrate) is used to measure dead-cell protease that has been released from cells that have lost membrane integrity. A ratio of dead to live cells is used to normalize data.
Briefly, the tet-inducible transgenic APOL1 T-REx-HEK293 cell lines were incubated with 50 ng/mL tet to induce APOL1 in the presence of 3-(2-(4-fluorophenyl)-1H-indol-3-yl)-N-((3S,4R)-4-hydroxy-2-oxopyrrolidin-3-yl)propenamide at 10.03, 3.24, 1.13, 0.356, 0.129, 0.042, 0.129, 0.0045, 0.0015, 0.0005 μM in duplicate for 24 hours in a humidified 37° C. incubator. The MultiTox reagent was added to each well and placed back in the incubator for an additional 30 minutes. The plate was read on the EnVision plate reader. A ratio of dead to live cells was used to normalize, and data was imported, analyzed, and fit using Genedata Screener (Basel, Switzerland) software. Data was normalized using percent of control, no tet (100% viability), and 50 ng/mL tet treated (0% viability),and fit using Smart Fit. The reagents, methods, and complete protocol for the MultiTox assay are described below.
Human embryonic kidney (HEK293) cell lines containing a tet-inducible expression system (T-REx™; Invitrogen, Carlsbad, CA) and Adeno-associated virus site 1 pAAVS1-Puro-APOL1 G0 or pAAVS1-Puro-APOL1 G1 or pAAVS1-Puro-APOL1 G2 Clones G0 DC2.13, Gi DC3.25, and G2 DC4.44 were grown in a T-225 flask at ˜90% confluency in cell growth media (DMEM, 10% Tet-free FBS, 2 mM L-glutamine, 100 Units/mL penicillin-streptomycin, 5 μg/mL blasticidin S HCl, 1 μg/mL puromycin dihydrochloride). Cells were washed with DPBS and then trypsinized to dissociate from the flask. Media was used to quench the trypsin, cells were then pelleted at 200 g and resuspended in fresh cell assay media (DMEM, 2% Tet-free FBS, 2 mM L-glutamine, 100 Units/mL penicillin-streptomycin). Cells were counted and diluted to 1.17×10^6 cells/mL. 20 μL of cells (23,400/well) were dispensed in every well of a 384-well Poly-D-Lysine coated plate using the Multidrop dispenser. The plates were then incubated at room temperature for one hour.
Tetracycline is needed to induce APOL1 expression. 1 mg/mL tet stock in water was diluted to 250 ng/mL (5×) in cell assay media. 60 μL of cell assay media (no tet control) was dispensed in columns 1 and 24, and 60 μL of 5× tet in 384-PP-round bottom plate was dispensed in columns 2 to 23 with the Multidrop dispenser.
Assay ready plates from the Global Compound Archive were ordered using template 384_APOLICell_DR10n2_50 uM_v3. Compounds were dispensed at 200 nL in DMSO. The final top concentration was 10 μM with a 10 point 3-fold dilution in duplicate in the MultiTox assay.
20 μL was transferred from the 5× tet plate to the ARP and mixed, then 5 μL of 5× tet and the compounds were transferred to the cell plate and mixed using the Bravo. The cell plate was placed in the humidified 37° C. 5% CO2 incubator for 24 hours.
The MultiTox-Fluor Multiplex Cytotoxicity Assay was performed in accordance with the manufacturer's protocol. After cells were incubated with tet and compound for 24 hours, 25 μL of 1x MultiTox reagent was added to each well using the Multidrop dispenser; the plates were placed on a plate shaker (600 rpm) for 2 minutes, then centrifuged briefly and placed back in the 37° C. incubator for 30 minutes. […]

SMILES | IC50 [nM]
C[C@H]1C[C@@]2(C[C@@H](c3cn(C)nn3)N1)C(=O)Nc1cc(Cl)ccc12 [Compound 36, (2′S,3S,6′S)-6-chloro-2′-methyl-6′-(1-methyltriazol-4-yl)spiro[indoline-3,4′-piperidine]-2-one] | < 50
C[C@H]1C[C@@]2(C[C@@H](c3cn(C)nn3)N1)C(=O)Nc1ccc(C(F)(F)F)cc12 [Compound 37, (2′S,3S,6′S)-2′-methyl-6′-(1-methyltriazol-4-yl)-5-(trifluoromethyl)spiro[indoline-3,4′-piperidine]-2-one] | < 50
C[C@H]1C[C@@]2(C[C@@H](c3cn(C)nn3)N1)C(=O)Nc1cc(C(F)(F)F)ccc12 [Compound 38, (2′S,3S,6′S)-2′-methyl-6′-(1-methyltriazol-4-yl)-6-(trifluoromethyl)spiro[indoline-3,4′-piperidine]-2-one] | < 50
C[C@H]1CC2(C[C@@H](c3cn(C)nn3)N1)OC(C(N)=O)c1cc(Cl)ccc12 (stereo partly drawn) [Compound 39, (2′S,6′S)-6-chloro-2′-methyl-6′-(1-methyltriazol-4-yl)spiro[1H-isobenzofuran-3,4′-piperidine]-1-carboxamide] | < 50
C[C@H]1CC2(C[C@@H](c3cn(C)nn3)N1)OC(C(N)=O)c1ccc(Cl)cc12 (stereo partly drawn) [Compound 41, (2′S,6′S)-5-chloro-2′-methyl-6′-(1-methyltriazol-4-yl)spiro[1H-isobenzofuran-3,4′-piperidine]-1-carboxamide] | < 50
